Assays:
Assay in all cases: relative viability (nuclei count vs DMSO), 5 days (fraction); higher = more cells survive
IU1-47 = compound: CC1=CC(=C(N1C2=CC=C(C=C2)Cl)C)C(=O)CN3CCCCC3 [IU1-47]
How it was run: (§1)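 In 1536-well plates, lung cancer cell lines rested overnight at 37 °C before five library-drug doses (not always all listed), √10 apart, were pinned onto vehicle-anchored plates. Nuclei were counted with MetaXpress from 4× Hoechst images taken after 5 days without medium change. Viability compares treated-well with vehicle-well nuclei as a median over plates, and plates needed control CV below 25% plus at least one doubling to pass.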

FG-4592 = compound: Cc1nc(C(=O)NCC(=O)O)c(O)c2ccc(Oc3ccccc3)cc12 [FG-4592]
How it was run: as §1

FG-4592 + Bortezomib = compound: Cc1nc(C(=O)NCC(=O)O)c(O)c2ccc(Oc3ccccc3)cc12 [FG-4592] + CC(C)C[C@H](NC(=O)[C@H](Cc1ccccc1)NC(=O)c1cnccn1)B(O)O [Bortezomib] (partner 0.002 µM)
How it was run: (§2)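 Lung cancer cell lines in 1536-well plates got either a single drug or a fixed anchor-drug dose together with five library-drug doses (not always all listed) in √10 steps, by pin tool, on the day after seeding. Nuclei were counted after 5 days, and relative viability is the treated-to-vehicle ratio of nuclei counts. Values are medians of duplicate plates.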

IU1-47 + Alpelisib = compound: CC1=CC(=C(N1C2=CC=C(C=C2)Cl)C)C(=O)CN3CCCCC3 [IU1-47] + Cc1nc(NC(=O)N2CCC[C@H]2C(N)=O)sc1-c1ccnc(C(C)(C)C(F)(F)F)c1 [Alpelisib] (partner 2 µM)
How it was run: as §2

Cell Line	relative viability (IU1-47; 0.08 µM)	relative viability (IU1-47; 0.253 µM)	relative viability (IU1-47; 0.8 µM)	relative viability (IU1-47; 2.53 µM)	relative viability (IU1-47; 8 µM)	relative viability (FG-4592; 0.08 µM)	relative viability (FG-4592; 0.253 µM)	relative viability (FG-4592; 0.8 µM)	relative viability (FG-4592; 2.53 µM)	relative viability (FG-4592; 8 µM)	relative viability (FG-4592 + Bortezomib; first compound 0.08 µM)	relative viability (FG-4592 + Bortezomib; first compound 0.253 µM)	relative viability (FG-4592 + Bortezomib; first compound 0.8 µM)	relative viability (FG-4592 + Bortezomib; first compound 2.53 µM)	relative viability (FG-4592 + Bortezomib; first compound 8 µM)	relative viability (IU1-47 + Alpelisib; first compound 0.08 µM)	relative viability (IU1-47 + Alpelisib; first compound 0.253 µM)	relative viability (IU1-47 + Alpelisib; first compound 0.8 µM)	relative viability (IU1-47 + Alpelisib; first compound 2.53 µM)	relative viability (IU1-47 + Alpelisib; first compound 8 µM)
NCI-H1703	1.03	0.75	0.894	0.921	0.922	0.901	0.823	0.935	0.904	0.772	0.334	0.327	0.355	0.186	0.274	0.264	0.273	0.286	0.355	0.301
Calu-6	1	1.06	1.07	1.04	1.02	0.945	0.995	1.03	0.975	1.02	0.98	0.854	0.938	1.1	0.926	0.907	1.01	0.989	0.985	1.25
EBC-1	1.06	0.954	1.05	0.921	0.867	1.07	0.977	0.95	0.94	0.953	0.63	0.531	0.57	0.546	0.688	0.863	0.742	0.805	0.722	0.676
SW 1573	1.03	1.05	0.958	0.857	0.934	0.936	0.79	0.909	0.994	0.896	1.04	0.954	0.963	1	1	0.905	0.758	0.664	0.756	0.839
A-427	1.03	1.04	1.12	0.549	0.956	0.923	0.916	0.797	0.866	0.897	0.925	0.979	0.983	0.946	0.954	1.09	1.08	1.14	–	1.04
NCI-H2347	1.11	1.02	1.04	0.828	1.01	0.873	0.738	0.955	0.936	1.05	–	0.623	0.806	0.782	1.14	0.958	1.05	1.11	1.05	1.11
NCI-H1355	1.01	1.04	1.03	–	0.881	0.965	0.922	–	0.926	0.912	1.2	1.15	–	1.1	1.25	0.89	0.948	0.894	0.797	0.79
PC-3 [JPC-3]	1.09	1.06	1.11	0.705	0.982	1.06	0.948	0.987	1.07	1.02	0.824	0.745	0.872	0.884	0.832	1.08	0.982	1.04	–	1.01
NCI-H2228	1.04	1.14	1.06	0.986	0.709	0.905	0.868	0.899	1.02	0.644	0.928	0.872	0.786	1.1	0.737	0.904	1.06	0.687	0.796	0.451
HOP-62	1.09	1.05	1.09	0.779	1.09	0.997	0.957	0.943	0.96	1.01	0.602	0.816	0.628	0.754	0.985	1.16	1.21	1.05	1.11	1.01
HARA	0.964	0.935	1.09	0.68	0.817	0.782	0.752	0.822	1.01	1.13	1.03	1.01	–	1.08	1.11	1.02	1.13	0.925	1.1	0.604
NCI-H838	1.01	1.05	1.04	1.01	0.955	0.962	0.937	0.853	0.946	0.923	0.893	0.923	0.697	0.663	0.747	1.04	1.03	1.05	1.08	0.859
NCI-H1755	1.11	1.11	1.09	1.04	0.958	0.958	0.941	0.916	1.02	1.03	0.918	1.01	0.907	1.02	0.998	1.04	1.03	1.03	0.978	0.8
HCC-78	0.97	0.953	1.03	0.874	0.889	0.893	0.746	0.972	0.916	1.01	0.558	0.51	0.406	0.453	0.371	0.387	0.319	0.391	0.327	0.294
IA-LM	1.11	1.08	1.08	1.01	0.884	0.913	0.933	0.894	0.859	0.764	0.914	0.75	0.814	0.653	0.405	0.738	0.595	0.854	0.679	0.526
NCI-H322M	0.972	1.02	0.919	0.922	0.925	0.812	0.907	0.844	0.897	0.89	1.37	1.18	1.17	1.25	1.3	0.802	0.82	0.805	0.755	0.831

Cell Line	relative viability (IU1-47; 0.08 µM)	relative viability (IU1-47; 0.253 µM)	relative viability (IU1-47; 0.8 µM)	relative viability (IU1-47; 2.53 µM)	relative viability (IU1-47; 8 µM)	relative viability (FG-4592; 0.08 µM)	relative viability (FG-4592; 0.253 µM)	relative viability (FG-4592; 0.8 µM)	relative viability (FG-4592; 2.53 µM)	relative viability (FG-4592; 8 µM)	relative viability (FG-4592 + Bortezomib; first compound 0.08 µM)	relative viability (FG-4592 + Bortezomib; first compound 0.253 µM)	relative viability (FG-4592 + Bortezomib; first compound 0.8 µM)	relative viability (FG-4592 + Bortezomib; first compound 2.53 µM)	relative viability (FG-4592 + Bortezomib; first compound 8 µM)	relative viability (IU1-47 + Alpelisib; first compound 0.08 µM)	relative viability (IU1-47 + Alpelisib; first compound 0.253 µM)	relative viability (IU1-47 + Alpelisib; first compound 0.8 µM)	relative viability (IU1-47 + Alpelisib; first compound 2.53 µM)	relative viability (IU1-47 + Alpelisib; first compound 8 µM)
NCI-H3122	1.07	1.07	1.01	1.04	0.974	1.03	0.957	1.06	1.07	1.03	1.03	1.02	1.13	1.07	1.07	0.82	1.02	0.97	0.967	0.724
COR-L23	1.1	1.08	1.15	0.938	1.15	0.97	1.01	1.11	0.902	1.03	1.03	0.874	1.26	0.888	0.889	0.686	0.947	0.869	0.951	0.975
NCI-H2087	1.04	1.01	1.06	0.924	1	0.98	0.988	1.32	1.01	1.13	0.775	0.864	0.983	0.832	0.789	1.23	1.01	1.15	1.21	0.909
LC-2-ad	0.981	0.997	1.07	0.673	0.889	0.997	0.924	0.973	0.925	1.09	0.98	1.02	0.973	1.05	0.878	0.897	0.951	0.919	0.973	0.767
NCI-H1915	0.995	0.989	1.04	–	0.905	0.951	0.959	0.918	0.955	1.02	0.933	0.922	0.95	0.884	1.01	1.07	1.11	1.13	–	1.07
NCI-H2023	0.951	0.949	1.06	0.851	1.27	0.919	0.866	0.857	0.922	0.88	1.07	0.924	0.664	0.763	0.679	0.6	0.531	0.511	0.627	0.519
COR-L 105	0.95	0.901	1.02	0.899	0.91	0.921	0.938	0.909	0.821	0.801	0.75	0.725	0.796	0.807	0.674	1.29	1.06	1.11	1.16	0.783
RERF-LC-KJ	1.06	1.04	1.14	0.902	0.946	1.03	0.922	1	1.02	0.906	0.99	0.975	0.967	1.11	1.06	0.785	0.946	0.775	0.869	0.76
LXF-289	1.08	1.06	1.08	0.982	0.958	1.04	0.941	1.06	0.981	1.09	1.02	0.886	1.05	0.97	0.973	1.06	1.09	1.12	1.06	1.05
PC-14	1.04	1.05	1.09	0.84	0.933	1.07	0.927	0.99	0.982	0.97	0.859	0.946	0.947	0.949	1.01	1.03	0.987	1.12	1.02	0.782
NCI-H650	1.15	1.08	0.978	0.836	0.876	0.836	0.964	0.737	0.912	0.891	0.903	0.771	0.525	0.66	0.807	1.28	1.14	1.2	1.09	1.01
NCI-H1666	0.953	1.02	0.968	0.957	1.01	0.979	0.939	0.953	0.913	0.901	0.839	0.843	0.705	0.701	0.537	0.882	0.903	0.812	1.03	0.836
NCI-H2085	1.05	0.998	0.973	1.01	0.954	1	0.955	0.934	0.965	1.02	0.998	1.02	1.01	0.963	1.06	1.04	0.973	1.02	0.975	0.856
NCI-H1734	1.06	1.07	0.981	–	0.99	0.824	0.939	0.717	0.808	0.876	0.743	0.956	0.861	0.838	0.951	0.645	0.714	0.65	–	0.708
NCI-H2126	1.09	1.02	1.1	0.698	0.957	0.969	0.906	0.82	0.846	0.901	1.09	1.1	1.12	1.12	1.13	0.759	0.814	0.78	0.55	0.707
EMC-BAC-2	1.1	1.09	0.974	0.977	0.974	0.947	0.929	0.674	0.938	0.779	1.04	1.04	0.934	1.02	1	0.768	0.824	0.793	0.749	0.711
